The source of these data is patent US12459922B2 (Gilead Sciences, Inc., priority 2022, dated 2025).

This assay concerns endogenous cellular STAT1 (phosphorylated at Tyr701) in NCI-H1373 cells. Kind of assay: Phospho-STAT1 (Tyr701) LANCE Ultra TR-FRET Detection Assay. The assay is classed as cell-based. To be noted: Homo sapiens, NCI-H1373, 48 h, phospho-STAT1 (Tyr701) induction, read-out: NH1373 pSTAT1 EC50. The procedure:
Phospho-STAT1 (Tyr701 LANCE Ultra TR-FRET Detection Assay
d. LANCE Ultra phospho-STAT1 (Tyr701) kits are designed for the detection of phosphorylated STAT1 in cell lysates using a simple, homogeneous LANCE Ultra sandwich assay (Cat. #TRF4028M). This assay is intended for assessing compound induction of endogenous levels of cellular STAT1 (phosphorylated at Tyr701) in NCI-H1373 cells. The NCI-H1373 cells are cultured in RPMI 1640 media containing 10% heat inactivated FBS, GlutaMAX, 1% Penicillin-Streptomycin. An Echo acoustic liquid handler is used to transfer 60 nanoliters of compound dilutions using the Echo Qualified, 384-well polypropylene microplate clear flat bottom source plates into a Greiner (#781080) cell culture microplate. NCI-H1373 cells are seeded into these compound-spotted culture plates at 30,000 cells/well in a 60 uL volume in growth media. The plates are incubated in a 5% CO2 humidified incubator at 37° C. for 48 hours. […] After spinning the plate down at 300 rpm for 1 min, the plate is read on an EnVision plate reader set up for Eu3+ Cryptate and fluorescence emission is measured at two different wavelengths (665 nm and 620 nm). The HTRF ratio is then calculated […] for each well to determine the amount of pSTAT1 in the cell lysate, and the data is then normalized to 10 uM GS-1154611 positive and DMSO negative controls.

Broadly, the EC50 is the concentration at which the effect is half-maximal. Take `Nc1nc(-c2cc3ccn(CCC[C@H](COC(F)F)Nc4cn[nH]c(=O)c4C(F)(F)F)c(=O)c3c(F)c2F)ncc1OC(F)F` [Example 397, (R)-6-(4-amino-5-(difluoromethoxy)pyrimidin-2-yl)-2-(5-(difluoromethoxy)-4-((6-oxo-5-(trifluoromethyl)-1,6-dihydropyridazin-4-yl)amino)pentyl)-7,8-difluoroisoquinolin-1(2H)-one]: the EC50 was 10.1 nM.
On to `O=c1[nH]ncc(N[C@H]2CCC[C@@H](Cn3cc(F)c4cc(-c5ncc(C(F)F)cn5)c(F)cc4c3=O)C2)c1C(F)(F)F` [Example 482, 6-(5-(difluoromethyl)pyrimidin-2-yl)-4,7-difluoro-2-(((1R,3S)-3-((6-oxo-5-(trifluoromethyl)-1,6-dihydropyridazin-4-yl)amino)cyclohexyl)methyl)isoquinolin-1(2H)-one], for which the EC50 is 1.94 nM.
The same measure for `Nc1nc(-c2cc3ncn(CCC[C@H](COC(F)F)Nc4cn[nH]c(=O)c4C(F)(F)F)c(=O)c3cc2F)nc(C2CC2)c1Cl` [Example 414, (R)-7-(4-amino-5-chloro-6-cyclopropylpyrimidin-2-yl)-3-(5-(difluoromethoxy)-4-((6-oxo-5-(trifluoromethyl)-1,6-dihydropyridazin-4-yl)amino)pentyl)-6-fluoroquinazolin-4(3H)-one]: 10.9 nM; for `Nc1nc(-c2cc3ccn(CC[C@H]4CC[C@@H]4Nc4cn[nH]c(=O)c4C(F)(F)F)c(=O)c3cc2F)ncc1C(F)(F)F` [Example 123, 6-(4-amino-5-(trifluoromethyl)pyrimidin-2-yl)-7-fluoro-2-(2-((1R,2S)-2-((6-oxo-5-(trifluoromethyl)-1,6-dihydropyridazin-4-yl)amino)cyclobutyl)ethyl)isoquinolin-1(2H)-one]: 6.29 nM.
As for `C[C@@H](CCCn1ccc2cc(-c3ccc(Cl)c(N)n3)c(F)cc2c1=O)Nc1cn[nH]c(=O)c1C(F)(F)F` [Example 293, (S)-6-(6-amino-5-chloropyridin-2-yl)-7-fluoro-2-(4-((6-oxo-5-(trifluoromethyl)-1,6-dihydropyridazin-4-yl)amino)pentyl)isoquinolin-1(2H)-one], the figure is 5.28 nM; as for `Cc1cnc(-c2cc3ccn(CCC[C@H](C)Nc4cn[nH]c(=O)c4C(F)(F)F)c(=O)c3c(F)c2F)nc1N` [Example 77, (S)-6-(4-amino-5-methylpyrimidin-2-yl)-7,8-difluoro-2-(4-((6-oxo-5-(trifluoromethyl)-1,6-dihydropyridazin-4-yl)amino)pentyl)isoquinolin-1(2H)-one], 13.5 nM.
With `Nc1nc(-c2cc3ccn(Cc4cccc(Nc5cn[nH]c(=O)c5C(F)(F)F)c4)c(=O)c3cc2F)ncc1C(F)(F)F` [Example 438, 6-(4-amino-5-(trifluoromethyl)pyrimidin-2-yl)-7-fluoro-2-(3-((6-oxo-5-(trifluoromethyl)-1,6-dihydropyridazin-4-yl)amino)benzyl)isoquinolin-1(2H)-one], the EC50 amounted to 23.1 nM.
Consider `Nc1nc(-c2cc3ccn(CCC[C@@H](Nc4cn[nH]c(=O)c4C(F)(F)F)C4CC4)c(=O)c3cc2F)ncc1C(F)F` [Example 147], for which the EC50 came to 39.1 nM.
`COc1cnc(-c2cc3ccn(C[C@@H]4CCC[C@H](Nc5cn[nH]c(=O)c5C(F)(F)F)C4)c(=O)c3cc2F)nc1N` [Example 255, 6-(4-amino-5-methoxypyrimidin-2-yl)-7-fluoro-2-(((1R,3S)-3-((6-oxo-5-(trifluoromethyl)-1,6-dihydropyridazin-4-yl)amino)cyclohexyl)methyl)isoquinolin-1(2H)-one]: the EC50 came out at 9.1 nM.
Regarding `Nc1nc(-c2cc3ccn(C[C@@H]4CCC[C@H](Nc5cn[nH]c(=O)c5C(F)(F)F)C4)c(=O)c3c(F)c2F)ccc1C(F)(F)F` [Example 252, 6-(6-amino-5-(trifluoromethyl)pyridin-2-yl)-7,8-difluoro-2-(((1R,3S)-3-((6-oxo-5-(trifluoromethyl)-1,6-dihydropyridazin-4-yl)amino)cyclohexyl)methyl)isoquinolin-1(2H)-one], the EC50 came out at 16.2 nM.
Regarding `C[C@@H](CCCn1ccc2cc(-c3ncc(-c4cc(C(F)(F)F)n(C)n4)cn3)c(F)cc2c1=O)Nc1cn[nH]c(=O)c1C(F)(F)F` [Example 93, (S)-7-fluoro-6-(5-(1-methyl-5-(trifluoromethyl)-1H-pyrazol-3-yl)pyrimidin-2-yl)-2-(4-((6-oxo-5-(trifluoromethyl)-1,6-dihydropyridazin-4-yl)amino)pentyl)isoquinolin-1(2H)-one], the EC50 amounted to 45.9 nM.
For the compound `Nc1nc(-c2cc3ncn(CCC[C@@H](Nc4cn[nH]c(=O)c4C(F)(F)F)C4CC4)c(=O)c3cc2F)cnc1C(F)(F)F` [Example 460, (R)-7-(6-amino-5-(trifluoromethyl)pyrazin-2-yl)-3-(4-cyclopropyl-4-((6-oxo-5-(trifluoromethyl)-1,6-dihydropyridazin-4-yl)amino)butyl)-6-fluoroquinazolin-4(3H)-one], the EC50 amounted to 69.9 nM.
Regarding `C[C@@H](CCCn1ccc2cc(-c3nc(N)c4ccccc4n3)c(F)cc2c1=O)Nc1cn[nH]c(=O)c1C(F)(F)F` [Example 363, (S)-6-(4-aminoquinazolin-2-yl)-7-fluoro-2-(4-((6-oxo-5-(trifluoromethyl)-1,6-dihydropyridazin-4-yl)amino)pentyl)isoquinolin-1(2H)-one], the EC50 came out at 3.28 nM.
In the case of `Nc1nc(-c2cc3ncn(CCC[C@@H](Nc4cn[nH]c(=O)c4C(F)(F)F)C4CC4)c(=O)c3cc2F)ncc1C(F)F` [Example 462, (R)-7-(4-amino-5-(difluoromethyl)pyrimidin-2-yl)-3-(4-cyclopropyl-4-((6-oxo-5-(trifluoromethyl)-1,6-dihydropyridazin-4-yl)amino)butyl)-6-fluoroquinazolin-4(3H)-one], the EC50 stood at 27.6 nM.
In the case of `[2H]C([2H])([2H])OC[C@@H](CCCn1cnc2cc(-c3ncc(C(F)F)cn3)c(F)cc2c1=O)Nc1cn[nH]c(=O)c1C(F)(F)F` [Example 431], the EC50 was found to be 6.42 nM.
As to `Nc1nc(-c2cc3ncn(CCC[C@H](COC(F)F)Nc4cn[nH]c(=O)c4C(F)(F)F)c(=O)c3cc2F)ncc1OC(F)F` [Example 374, (R)-7-(4-amino-5-(difluoromethoxy)pyrimidin-2-yl)-3-(5-(difluoromethoxy)-4-((6-oxo-5-(trifluoromethyl)-1,6-dihydropyridazin-4-yl)amino)pentyl)-6-fluoroquinazolin-4(3H)-one], the EC50 was found to be 44.8 nM.
For the compound `C[C@@H](CCCn1cnc2cc(-c3cc4c(cn3)C(F)(F)CC4)c(F)cc2c1=O)Nc1cn[nH]c(=O)c1C(F)(F)F` [Example 204], the EC50 is 45.1 nM.
As for `O=c1[nH]ncc(N[C@@H](CO)CCCn2ccc3cc(-c4ncc(C(F)F)cn4)c(F)cc3c2=O)c1C(F)(F)F` [Example 165], the figure is 159 nM; as for `COc1cnc(-c2cc3ncn(CCC[C@@H]4C[C@@H](C)CN4c4cn[nH]c(=O)c4C(F)(F)F)c(=O)c3cc2F)nc1N` [Example 177, 7-(4-amino-5-methoxypyrimidin-2-yl)-6-fluoro-3-[3-[(2R,4R)-4-methyl-1-[6-oxo-5-(trifluoromethyl)-1H-pyridazin-4-yl]pyrrolidin-2-yl]propyl]quinazolin-4-one], 537 nM; as for `C[C@@H](CCCn1ccc2cc(-c3cnc(C(F)(F)F)c(N)n3)c(F)cc2c1=O)Nc1cn[nH]c(=O)c1C(F)(F)F` [Example 316, (S)-6-(6-amino-5-(trifluoromethyl)pyrazin-2-yl)-7-fluoro-2-(4-((6-oxo-5-(trifluoromethyl)-1,6-dihydropyridazin-4-yl)amino)pentyl)isoquinolin-1(2H)-one], 15.5 nM.
Take `COc1cnc(-c2cc3ccn(CCC[C@H](C)Nc4cn[nH]c(=O)c4C(F)(F)F)c(=O)c3cc2F)nc1NC1CC1` [Example 216, (S)-6-(4-(cyclopropylamino)-5-methoxypyrimidin-2-yl)-7-fluoro-2-(4-((6-oxo-5-(trifluoromethyl)-1,6-dihydropyridazin-4-yl)amino)pentyl)isoquinolin-1(2H)-one]: the EC50 was 39.3 nM.
Take `CC[C@@H](CCCn1ccc2cc(-c3ncc(C(F)F)cn3)c(F)cc2c1=O)Nc1cn[nH]c(=O)c1C(F)(F)F` [Example 345, (S)-6-(5-(difluoromethyl)pyrimidin-2-yl)-7-fluoro-2-(4-((6-oxo-5-(trifluoromethyl)-1,6-dihydropyridazin-4-yl)amino)hexyl)isoquinolin-1(2H)-one]: the EC50 came to 6.71 nM.
`Nc1nc(-c2cc3ncn(CC[C@H]4CCC[C@@H]4Nc4cn[nH]c(=O)c4C(F)(F)F)c(=O)c3cc2F)cnc1C(F)(F)F` [Example 465, 7-(6-amino-5-(trifluoromethyl)pyrazin-2-yl)-6-fluoro-3-(2-((1R,2S)-2-((6-oxo-5-(trifluoromethyl)-1,6-dihydropyridazin-4-yl)amino)cyclopentyl)ethyl)quinazolin-4(3H)-one]: the EC50 turned out to be 18 nM.
Turning to `[2H][C@](C)(CCCn1ccc2cc(-c3ncc(C(F)(F)F)cn3)c(F)c(F)c2c1=O)Nc1cn[nH]c(=O)c1C(F)(F)F` (single isomer, unassigned) [Example 87], the EC50 is 10000 nM.
